Measured values: US20230087118A1, “IMIDAZO[1,2-a][sequence] DERIVATIVES AND THEIR USE IN THE TREATMENT OF DISEASE” (priority 2019, published 2023)
Where a name gives a salt, the structure may show the parent alone.

Each compound was assayed against T1, IRAK4 (Homo sapiens, UniProt Q9NWZ3) (assay: biochemical). Details: not given.
T1 sequence (Q9NWZ3 1-460): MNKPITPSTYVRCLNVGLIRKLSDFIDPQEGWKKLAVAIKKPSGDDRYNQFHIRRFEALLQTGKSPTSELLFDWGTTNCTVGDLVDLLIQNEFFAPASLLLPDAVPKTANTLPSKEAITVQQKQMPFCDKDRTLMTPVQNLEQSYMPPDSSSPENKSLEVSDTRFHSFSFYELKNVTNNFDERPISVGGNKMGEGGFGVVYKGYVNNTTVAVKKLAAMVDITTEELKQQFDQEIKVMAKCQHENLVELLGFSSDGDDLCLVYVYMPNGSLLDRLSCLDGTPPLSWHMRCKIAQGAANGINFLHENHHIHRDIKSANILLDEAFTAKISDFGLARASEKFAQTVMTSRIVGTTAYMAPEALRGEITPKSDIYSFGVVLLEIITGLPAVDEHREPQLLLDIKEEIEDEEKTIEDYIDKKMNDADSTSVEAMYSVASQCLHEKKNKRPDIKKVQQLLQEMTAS

IC50	Structure (SMILES)
0.0002 µM	CC(C)Oc1cc2nc([C@@]34CC[C@@](C)(C3)OC4)cn2cc1C(=O)Nc1cccn(C(F)F)c1=O (single isomer, unassigned) [Example 624]
0.0003 µM	CC(C)Oc1cc2nc([C@]34CC[C@](C)(C3)OC4)cn2cc1C(=O)Nc1cccn(C(F)F)c1=O (single isomer, unassigned) [Example 625]
0.0004 µM	C[C@@H](Oc1cc2nc(C34COC(C)(C3)C4)cn2cc1C(=O)Nc1cccc(C(F)F)n1)C1CC1 (single isomer, unassigned) [Example 655]
0.0002 µM	C[C@H](Oc1cc2nc(C34COC(C)(C3)C4)cn2cc1C(=O)Nc1cccc(C(F)F)n1)C1CC1 (single isomer, unassigned) [Example 656]
0.0298 µM	COc1cc2nc(C34COC(C)(C3)C4)cn2cc1C(=O)Nc1ccccn1 [Example 1, 7-Methoxy-2-(1-methyl-2-oxabicyclo[2.1.1]hexan-4-yl)-N-(2-pyridyl)imidazo[1,2-a]pyridine-6-carboxamide]
0.235 µM	COc1cc2nc(C34CC(C)(CO3)C4)cn2cc1C(=O)Nc1ccccn1 [Example 4]
0.151 µM	COc1cc2nc(C3CC34CCCCO4)cn2cc1C(=O)Nc1ccccn1 (stereo not drawn) [Example 6]
0.015 µM	COc1cccc(NC(=O)c2cn3cc(C45COC(C)(C4)C5)nc3cc2OC)n1 [Example 31]
0.029 µM	CCOc1cc2nc([C@@H]3C[C@@H]3F)cn2cc1C(=O)Nc1cccc(OC)n1 [Example 80]

More lines, now with the values behind:

Structure (SMILES)	IC50
C[C@@]12CC[C@@](c3cn4cc(C(=O)Nc5cccc(C(F)F)n5)nc(OC5CCC5)c4n3)(CO1)C2 (single isomer, unassigned) [Example 626]	0.0006 µM
C[C@]12CC[C@](c3cn4cc(C(=O)Nc5cccc(C(F)F)n5)nc(OC5CCC5)c4n3)(CO1)C2 (single isomer, unassigned) [Example 627]	0.0004 µM
CC(C)Oc1nc2nc([C@@]34CC[C@@](C)(C3)OC4)cn2cc1C(=O)Nc1cccn(C(F)F)c1=O (single isomer, unassigned) [Example 628]	0.0001 µM
CC(C)Oc1nc2nc([C@]34CC[C@](C)(C3)OC4)cn2cc1C(=O)Nc1cccn(C(F)F)c1=O (single isomer, unassigned) [Example 629]	0.0003 µM
CC(C)Oc1nc2nc([C@@]34CC[C@@](C)(C3)OC4)cn2cc1C(=O)Nc1cnn2cc(F)cnc12 (single isomer, unassigned) [Example 630]	0.0003 µM
CC(C)Oc1nc2nc([C@]34CC[C@](C)(C3)OC4)cn2cc1C(=O)Nc1cnn2cc(F)cnc12 (single isomer, unassigned) [Example 631]	0.0004 µM
Cn1ccc(NC(=O)c2cn3cc([C@]45CC[C@](C)(C4)OC5)nc3cc2OC2CCCC2)n1 (single isomer, unassigned) [Example 633]	0.0016 µM
Cn1ccc(NC(=O)c2cn3cc([C@@]45CC[C@@](C)(C4)OC5)nc3cc2OC2CCCC2)n1 (single isomer, unassigned) [Example 634]	0.0023 µM
Cn1ccc(NC(=O)c2cn3cc([C@@]45CC[C@@](C)(C4)OC5)nc3nc2OC2CCCC2)n1 (single isomer, unassigned) [Example 635]	0.0026 µM
Cn1ccc(NC(=O)c2cn3cc([C@]45CC[C@](C)(C4)OC5)nc3nc2OC2CCCC2)n1 (single isomer, unassigned) [Example 636]	0.0037 µM
CCC(C)Oc1nc2nc(C34COC(C)(C3)C4)cn2cc1C(=O)Nc1cnn2cc(C)cnc12 (single isomer, unassigned) [Example 642]	0.0013 µM
CCC(C)Oc1nc2nc(C34COC(C)(C3)C4)cn2cc1C(=O)Nc1cnn2cc(C)cnc12 (single isomer, unassigned) [Example 643]	0.0004 µM
CCC(C)Oc1nc2nc(C34COC(CF)(C3)C4)cn2cc1C(=O)Nc1cnn2cc(C)cnc12 (single isomer, unassigned) [Example 644]	0.0012 µM
CCC(C)Oc1nc2nc(C34COC(CF)(C3)C4)cn2cc1C(=O)Nc1cnn2cc(C)cnc12 (single isomer, unassigned) [Example 645]	0.0005 µM
Cc1cnc2c(NC(=O)c3cn4cc([C@]56CO[C@H](CCO5)C6)nc4cc3OC(C)C)cnn2c1 (single isomer, unassigned) [Example 646]	0.0008 µM
Cc1cnc2c(NC(=O)c3cn4cc([C@]56CO[C@H](CCO5)C6)nc4nc3OC(C)C)cnn2c1 (single isomer, unassigned) [Example 647]	0.0013 µM
Cn1ccc(NC(=O)c2cn3cc([C@]45CC[C@](C)(C4)OC5)nc3nc2OC2CCC2)n1 (single isomer, unassigned) [Example 648]	0.0045 µM
CC(C)Oc1nc2nc([C@@]34CC[C@@](C)(C3)OC4)cn2cc1C(=O)Nc1cccn(C)c1=O (single isomer, unassigned) [Example 652]	0.0005 µM
CC(C)Oc1nc2nc([C@]34CC[C@](C)(C3)OC4)cn2cc1C(=O)Nc1cccn(C)c1=O (single isomer, unassigned) [Example 653]	0.0011 µM
Cc1cnc2c(NC(=O)c3cn4cc(C56COC(C)(C5)C6)nc4cc3O[C@H](C)C3CC3)cnn2c1 (single isomer, unassigned) [Example 657]	0.0009 µM
Cc1cnc2c(NC(=O)c3cn4cc(C56COC(C)(C5)C6)nc4cc3O[C@@H](C)C3CC3)cnn2c1 (single isomer, unassigned) [Example 658]	0.0006 µM
CCOc1cc(C(=O)Nc2cccc(C(F)F)n2)cn2cc(C3CCCOC3)nc12 (stereo not drawn) [Example 52, N-(6-(difluoromethyl)pyridin-2-yl)-8-ethoxy-2-(tetrahydro-2H-pyran-3-yl)imidazo[1,2-a]pyridine-6-carboxamide]	0.0075 µM
CCOc1cc(C(=O)Nc2cccc(OC)n2)cn2cc(C3CCCOC3)nc12 (stereo not drawn) [Example 53, 8-Ethoxy-N-(6-methoxypyridin-2-yl)-2-(tetrahydro-2H-pyran-3-yl)imidazo[1,2-a]pyridine-6-carboxamide]	0.0352 µM
COc1cc2nc(C3CCOCC3)cn2cc1C(=O)Nc1cccc2ccnn12 [Example 57, 7-Methoxy-N-(pyrazolo[1,5-a]pyridin-7-yl)-2-(tetrahydro-2H-pyran-4-yl)imidazo[1,2-a]pyridine-6-carboxamide]	0.0041 µM
CCOc1cc2nc([C@H]3C[C@H]3F)cn2cc1C(=O)Nc1cccc(OC)n1 [Example 79]	0.0126 µM
COc1cccc(NC(=O)c2cn3cc(C4CCOCC4)nc3cn2)n1 [Example 81]	0.232 µM
O=C(Nc1cccc(C(F)(F)F)n1)c1cn2cc(C3CCOCC3)nc2cn1 [Example 82]	0.119 µM
O=C(Nc1cccc(C(F)F)n1)c1cn2cc(C3CCOCC3)nc2cn1 [Example 83]	0.264 µM
COCCn1ccc(NC(=O)c2cn3cc(C4C5COCC54)nc3cn2)n1 (stereo not drawn) [Example 84]	7.51 µM

Same assay, conditions: IRAK4 Biochemical Assay (1 mM ATP, 2 h) IC50 (μM), 1 mM ATP, 2 h, 100 pM IRAK4

IC50	Structure (SMILES)
0.0586 µM	COc1cc2nc(C34CC(OC)(C3)C4)cn2cc1C(=O)Nc1ccccn1 [Example 2]
0.217 µM	COc1cc2nc(C34CC(F)(C3)C4)cn2cc1C(=O)Nc1ccccn1 [Example 3]
0.0721 µM	COc1cc2nc(C34COC(CF)(C3)C4)cn2cc1C(=O)Nc1ccccn1 [Example 5]
0.0166 µM	COc1cccc(NC(=O)c2cn3cc(C45COC(CF)(C4)C5)nc3cc2OC)n1 [Example 7]
0.124 µM	COc1cccc(NC(=O)c2cn3cc(C45CC(C)(CO4)C5)nc3cc2OC)n1 [Example 26]
0.0198 µM	COc1cccc(NC(=O)c2cn3cc(C45CCC(C)(C4)OC5)nc3cc2OC)n1 (stereo not drawn) [Example 27]
0.0969 µM	COc1cccc(NC(=O)c2cn3cc(C45CC(C)(C4)OC54COC4)nc3cc2OC)n1 [Example 28]
0.0041 µM	COc1cccc(NC(=O)c2cn3cc(C45CCC(C)(CC4)OC5)nc3cc2OC)n1 [Example 29]
0.0735 µM	COc1cccc(NC(=O)c2cn3cc([C@@]45COC[C@@H]4C5)nc3cc2OC)n1 [Example 30]
0.0105 µM	CCc1cccc(NC(=O)c2cn3cc(C45COC(CF)(C4)C5)nc3cc2OC)n1 [Example 58, N-(6-ethylpyridin-2-yl)-2-(1-(fluoromethyl)-2-oxabicyclo[2.1.1]hexan-4-yl)-7-methoxyimidazo[1,2-a]pyridine-6-carboxamide trifluoroacetate]
0.0137 µM	CCc1cccc(NC(=O)c2cn3cc(C4CCOCC4)nc3cc2OC)n1 [Example 59]
0.0038 µM	CCc1cccc(NC(=O)c2cn3cc(C4CC5(CCOC5)C4)nc3cc2OC)n1 (stereo not drawn) [Example 62]

More lines, now with the values behind:

Structure (SMILES)	IC50
C[C@@]12CC[C@@](c3cn4cc(C(=O)Nc5ccccn5)nc(OC5CCC5)c4n3)(CO1)C2 (single isomer, unassigned) [Example 622]	0.004 µM
COc1cccc(NC(=O)c2cn3cc(C4C5CCOCC54)nc3cc2OC)n1 (stereo not drawn) [Example 25]	0.0031 µM
CCc1cccc(NC(=O)c2cn3cc(C4CC(OC)C4)nc3cc2OC)n1 (stereo not drawn) [Example 61]	0.0351 µM
O=C(Nc1cccc(C(F)F)n1)c1cc(OC(F)F)c2nc(C3CCOCC3)cn2c1 [Example 63, 8-(Difluoromethoxy)-N-(6-(difluoromethyl)pyridin-2-yl)-2-(tetrahydro-2H-pyran-4-yl)imidazo[1,2-a]pyridine-6-carboxamide trifluoroacetate]	0.0078 µM
COc1nc(C(=O)Nc2cccc(C(F)(F)F)n2)cn2cc(C3CCOCC3)nc12 [Example 76]	0.0095 µM
COc1cccc(NC(=O)c2cn3cc(C4CCOCC4)nc3c(OC)n2)n1 [Example 77]	0.074 µM
COc1nc(C(=O)Nc2ccccn2)cn2cc(C3CCOCC3)nc12 [Example 78]	0.0475 µM
